Source: ChEMBL document CHEMBL5046290, “Design, Synthesis, and Preclinical Profiling of GSK3739936 (BMS-986180), an Allosteric Inhibitor of HIV-1 Integrase with Broad-Spectrum Activity toward 124/125 Polymorphs” (J Med Chem, 2022)

Tests used:
[1] = Tmax in Sprague-Dawley rat at 5 mg/kg, po by LC-MS/MS analysis; type: ADME, organism-based; conditions: in vivo
[2] = Elimination half life in Sprague-Dawley rat at 1 mg/kg, iv by LC-MS/MS analysis; type: ADME, organism-based; conditions: in vivo, read-out: beta t1/2 (converted)
[3] = Stability in pH 7.4 for 2 weeks at 50 degC; type: physicochemical; conditions: buffer, pH 7.4, 336 h
[4] = Toxicity in dog assessed as vomiting at >=100 mg/kg, po administered as single dose; type: organism-based, Canis lupus familiaris; conditions: in vivo
[5] = Clearance in Cynomolgus monkey at 1 mg/kg, iv by LC-MS/MS analysis; type: ADME, organism-based, Macaca fascicularis; conditions: in vivo
[6] = molecular target: L-type calcium channel (Homo sapiens, UniProt O60840+Q01668+Q13698+Q13936); experiment: Inhibition of calcium channel, Type L (unknown origin) at 10 uM; type: toxicity
[7] = Toxicity in rat assessed as maximum tolerated dose; conditions: in vivo
[8] = Elimination half life in CD-1 mouse at 1 mg/kg, iv by LC-MS/MS analysis; type: ADME, organism-based; conditions: in vivo, read-out: beta t1/2 (converted)
[9] = Metabolic stability in rat liver microsome assessed half life at 0.5 uM by LC-MS/MS analysis; type: ADME; conditions: liver microsomes
[10] = Volume of distribution at steady state in Sprague-Dawley rat at 1 mg/kg, iv by LC-MS/MS analysis; type: ADME, organism-based; conditions: in vivo, read-out: Vdss
[11] = Cytotoxicity against human MT2 cells assessed as cell viability measured after 4 days by XTT assay; type: toxicity, cell-based; conditions: time 4 day
[12] = tested on: Human immunodeficiency virus 1; experiment: Antiviral activity against recombinant HIV1 NLRep-Rluc harbouring polymorphic T124/T125 integrase infected in human MT-2 cells assessed as inhibition of virus growth in presence of fetal bovine serum by measuring luciferase activity after 5 days; type: functional, organism-based, MT2; conditions: Human immunodeficiency virus 1, NLRep, MT2, 120 h
[13] = Toxicity in rat assessed as histological changes in stomach at 500 mg/kg/day; type: organism-based; conditions: in vivo
[14] = tested on: Human immunodeficiency virus 1; experiment: Antiviral activity against recombinant HIV1 NLRep-Rluc harbouring polymorphic NA infected in human MT-2 cells assessed as inhibition of virus growth in presence of fetal bovine serum by measuring luciferase activity after 5 days; type: functional, organism-based; conditions: Human immunodeficiency virus 1, NLRep, MT2, 120 h
[15] = Toxicity in rat at 50 to 500 mg/kg in cannulated jugular vein; type: organism-based; conditions: in vivo, iv, dose 50-500 mg/kg
[16] = Toxicity in dog assessed as fecal change at upto 300 mg/kg, po administered as single dose; type: organism-based, Canis lupus familiaris; conditions: in vivo
[17] = tested on: Human immunodeficiency virus 1; experiment: Antiviral activity against recombinant HIV1 NLRep-Rluc harbouring polymorphic AA infected in human MT-2 cells assessed as inhibition of virus growth in presence of fetal bovine serum by measuring luciferase activity after 5 days; type: functional, organism-based; conditions: Human immunodeficiency virus 1, NLRep, MT2, 120 h
[18] = Toxicity in rat at 500 mg/kg/day for one week; type: organism-based; conditions: in vivo
[19] = tested on: CYP; experiment: Half life in dog assessed as CYP mediated metabolism in presence of […] by phase I metabolic oxidation assay; type: ADME, Canis lupus familiaris
[20] = AUC in cynomolgus monkey at 2 mg/kg, po by LC-MS/MS analysis; type: ADME, organism-based, Macaca fascicularis; design: dose 2 mg/kg; conditions: in vivo
[21] = tested on: UGT; experiment: Metabolic stability assessed as rat UGT-mediated metabolism by measuring half life by phase II UGT conjugation assay; type: ADME
[22] = Toxicity in rat assessed as histological changes in spleen at 500 mg/kg/day; type: organism-based; conditions: in vivo
[23] = Plasma protein binding in monkey; type: ADME, cell-free, Macaca mulatta; conditions: rhesus monkey, read-out: PPB (converted)
[24] = molecular target: UGT (Homo sapiens, UniProt O60656+O75310+O75795+P06133+P0DTE4+P0DTE5+P16662+P19224+P22309+P22310+P35503+P35504+P36537+P54855+Q6UWM9+Q9BY64+Q9HAW7+Q9HAW8+Q9HAW9); experiment: Metabolic stability assessed as human UGT-mediated metabolism by measuring half life by phase II UGT conjugation assay; type: ADME, protein assay
[25] = Cardiotoxicity in dog heart assessed as decrease in blood pressure at 300 mg/kg; type: toxicity, organism-based, Canis lupus familiaris; design: scale not given: the % may be the effect or the level left; conditions: in vivo
[26] = Oral bioavailability in cynomolgus monkey at 2 mg/kg by LC-MS/MS analysis; type: ADME, organism-based, Macaca fascicularis; conditions: in vivo
[27] = Volume of distribution at steady state in Beagle dog at 1 mg/kg, iv by LC-MS/MS analysis; type: ADME, organism-based, Canis lupus familiaris; conditions: in vivo, read-out: Vdss
[28] = Plasma protein binding in human; type: ADME, cell-free; conditions: read-out: PPB (converted)
[29] = Toxicity in rat assessed as histological changes in bone marrow at 500 mg/kg/day; type: organism-based; conditions: in vivo
[30] = tested on: Human immunodeficiency virus 1; experiment: Antiviral activity against recombinant HIV1 A128T-resitant mutant […] infected in human MT-2 cells assessed as inhibition of virus growth in presence of fetal bovine serum by measuring luciferase activity after 5 days; type: functional, organism-based; conditions: Human immunodeficiency virus 1, MT2, 120 h
[31] = tested on: CYP; experiment: Half life in rat assessed as CYP mediated metabolism in presence of […] by phase I metabolic oxidation assay; type: ADME
[32] = Toxicity in rat assessed as histological changes in lymph node at 500 mg/kg/day; type: organism-based; conditions: in vivo
[33] = Cardiotoxicity in dog heart assessed as increase in heart rate at 300 mg/kg; type: toxicity, organism-based, Canis lupus familiaris; conditions: in vivo
[34] = Plasma protein binding in dog; type: ADME, cell-free, Canis lupus familiaris; conditions: read-out: PPB (converted)
[35] = Elimination half life in Cynomolgus monkey at 1 mg/kg, iv by LC-MS/MS analysis; type: ADME, organism-based, Macaca fascicularis; conditions: in vivo, read-out: beta t1/2 (converted)
[36] = Cmax in CD-1 mouse at 5 mg/kg, po by LC-MS/MS analysis; type: ADME, organism-based; design: route oral, dose 5 mg/kg; conditions: in vivo
[37] = Cmax in Beagle dog at 2 mg/kg, po by LC-MS/MS analysis; type: ADME, organism-based, Canis lupus familiaris; design: route oral, dose 2 mg/kg; conditions: in vivo
[38] = tested on: Human immunodeficiency virus 1; experiment: Antiviral activity against recombinant HIV1 NLRep-Rluc harbouring polymorphic AT infected in human MT-2 cells assessed as inhibition of virus growth in presence of fetal bovine serum by measuring luciferase activity after 5 days; type: functional, organism-based; conditions: Human immunodeficiency virus 1, NLRep, MT2, 120 h
[39] = molecular target: Cytochrome P450 2D6 (Homo sapiens, UniProt P10635); experiment: Inhibition of human CYP2D6; type: ADME
Chain of Cytochrome P450 2D6 (P10635 whole entry): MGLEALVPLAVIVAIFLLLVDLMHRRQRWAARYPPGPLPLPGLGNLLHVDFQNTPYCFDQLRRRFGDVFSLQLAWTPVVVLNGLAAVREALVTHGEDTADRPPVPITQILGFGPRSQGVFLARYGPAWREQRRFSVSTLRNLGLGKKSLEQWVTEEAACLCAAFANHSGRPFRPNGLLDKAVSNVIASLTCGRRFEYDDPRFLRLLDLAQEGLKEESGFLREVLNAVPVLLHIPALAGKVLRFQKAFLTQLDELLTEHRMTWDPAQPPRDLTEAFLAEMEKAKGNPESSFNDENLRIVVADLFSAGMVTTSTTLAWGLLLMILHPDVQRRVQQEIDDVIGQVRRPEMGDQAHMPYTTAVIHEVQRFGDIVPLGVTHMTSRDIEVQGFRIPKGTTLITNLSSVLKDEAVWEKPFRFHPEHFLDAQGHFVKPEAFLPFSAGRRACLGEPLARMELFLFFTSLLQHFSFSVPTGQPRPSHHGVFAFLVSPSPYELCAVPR

[40] = Cmax in Sprague-Dawley rat at 5 mg/kg, po by LC-MS/MS analysis; type: ADME, organism-based; design: route oral, dose 5 mg/kg; conditions: in vivo
[41] = Bioavailability in Beagle dog at 2 mg/kg, po by LC-MS/MS analysis; type: ADME, organism-based, Canis lupus familiaris; conditions: in vivo
[42] = tested on: Salmonella typhimurium; experiment: Genotoxicity in Salmonella typhimurium TA102 by Ames test; type: toxicity, organism-based; conditions: salmonella enterica subsp. enterica serovar typhimurium
[43] = Toxicity in rat assessed as histological changes in thymus at 500 mg/kg/day; type: organism-based; conditions: in vivo
[44] = Tmax in CD-1 mouse at 5 mg/kg, po by LC-MS/MS analysis; type: ADME, organism-based; conditions: in vivo
[45] = Permeability of the compound at pH 7.4 by PAMPA assay; type: ADME; conditions: read-out: permeability
[46] = molecular target: Cytochrome P450 2C9 (Homo sapiens, UniProt P11712); experiment: Inhibition of human CYP2C9; type: ADME
Chain of Cytochrome P450 2C9 (P11712 whole entry): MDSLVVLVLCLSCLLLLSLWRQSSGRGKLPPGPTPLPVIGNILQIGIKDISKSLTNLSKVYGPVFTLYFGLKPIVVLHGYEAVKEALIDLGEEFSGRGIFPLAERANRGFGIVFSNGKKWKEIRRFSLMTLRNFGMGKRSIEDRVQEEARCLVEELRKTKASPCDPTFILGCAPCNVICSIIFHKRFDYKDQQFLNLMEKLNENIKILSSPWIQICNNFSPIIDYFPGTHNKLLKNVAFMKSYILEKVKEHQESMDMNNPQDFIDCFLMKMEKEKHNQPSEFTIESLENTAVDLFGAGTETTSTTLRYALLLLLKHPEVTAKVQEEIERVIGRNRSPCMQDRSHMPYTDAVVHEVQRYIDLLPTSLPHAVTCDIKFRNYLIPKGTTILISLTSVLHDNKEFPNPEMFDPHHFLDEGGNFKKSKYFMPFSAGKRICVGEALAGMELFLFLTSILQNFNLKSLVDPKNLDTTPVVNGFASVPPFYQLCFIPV

[47] = Clearance in Beagle dog at 1 mg/kg, iv by LC-MS/MS analysis; type: ADME, organism-based, Canis lupus familiaris; conditions: in vivo
[48] = molecular target: Cytochrome P450 2C19 (Homo sapiens, UniProt P33261); experiment: Inhibition of human CYP2C19; type: ADME
Chain of Cytochrome P450 2C19 (P33261 whole entry): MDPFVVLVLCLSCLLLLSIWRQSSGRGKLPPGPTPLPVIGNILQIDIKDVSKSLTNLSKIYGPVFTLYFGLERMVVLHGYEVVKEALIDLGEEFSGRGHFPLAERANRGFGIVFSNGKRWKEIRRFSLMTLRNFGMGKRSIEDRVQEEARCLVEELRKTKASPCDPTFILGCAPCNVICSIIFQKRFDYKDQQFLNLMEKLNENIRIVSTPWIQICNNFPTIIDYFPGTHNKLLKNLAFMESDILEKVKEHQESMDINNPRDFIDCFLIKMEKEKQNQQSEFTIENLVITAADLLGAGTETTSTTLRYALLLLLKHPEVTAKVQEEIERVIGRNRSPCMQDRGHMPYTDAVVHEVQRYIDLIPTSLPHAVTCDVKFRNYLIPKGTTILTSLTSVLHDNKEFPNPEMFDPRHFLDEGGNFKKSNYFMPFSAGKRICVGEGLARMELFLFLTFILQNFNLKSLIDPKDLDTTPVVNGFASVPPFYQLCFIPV

[49] = AUC in Sprague-Dawley rat at 5 mg/kg, po by LC-MS/MS analysis; type: ADME, organism-based; design: dose 5 mg/kg; conditions: in vivo

## Cc1nc(C)c([C@H](OC(C)(C)C)C(=O)O)c(N2CCC(C)(C)CC2)c1-c1ccc(OCCc2ccc(F)cc2)cc1
[1]
  Tmax: 2.7 h
[2]
  half-life: 4.3 h
[3]
  Stability: Stable
[4]
  Activity: Toxic
[5]
  clearance: 14.5 mL/min/kg
[6]
  inhibition at 10 µM: 96%
[7]
  MTD: 50 mg/kg/day
[8]
  half-life: 6.3 h
[9]
  half-life at 0.5 µM: > 2 h
[10]
  Vd: 0.8 L/kg
[11]
  CC50 at 96 h: ≥ 33500 nM
[12]
  EC50: 1.7 nM
[13]
  Activity: Toxic
[14]
  EC50: 3.8 nM
[15]
  Activity: Non-Toxic
[16]
  Activity: Toxic
[17]
  EC50: 3.2 nM
[18]
  Activity: Toxic
[19]
  half-life: > 2 h
[20]
  AUC: 2.23 µM·h
[21]
  half-life: ≥ 2 h
[22]
  Activity: Toxic
[23]
  fraction unbound: 0.21
[24]
  half-life: ≥ 2 h
[25]
  Activity: 6%
[26]
  bioavailability: 54%
[27]
  Vd: 0.7 L/kg
[28]
  fraction unbound: 0.2
[29]
  Activity: Toxic
[30]
  EC50: 363 nM
[31]
  half-life: > 2 h
[32]
  Activity: Toxic
[33]
  Activity: 15%
[34]
  fraction unbound: 0.13
[35]
  half-life: 2.4 h
[36]
  Cmax: 2360 nM
[37]
  Cmax: 2960 nM
[38]
  EC50: 5.1 nM
[39]
  IC50: ≥ 24300 nM
[40]
  Cmax: 2760 nM
[41]
  bioavailability: 75%
[42]
  Activity: Non-Toxic
[43]
  Activity: Toxic
[44]
  Tmax: 5 h
[45]
  Papp: 50.5 ×10⁻⁶ cm/s
[46]
  IC50: ≥ 24300 nM
[47]
  clearance: 2.9 mL/min/kg
[48]
  IC50: ≥ 24300 nM
[49]
  AUC: 14 µM·h
